In patent EP4644391A1, “NOVEL PHENYLQUINOLONE COMPOUND HAVING ANTIBACTERIAL AND ANTICANCER FUNCTIONS, AND PREPARATION THEREOF” (Alphamol Science Ltd (Shanghai), priority 2022, dated 2024):
In brackets after ≈: the same amount, converted by molar mass. Read-outs that look alike come from different tables or passages of the source.

Experiments:
[1] = system: human acute T-lymphoblastic leukemia cell Jurkat; assay: In vitro anticancer activity test (MTT cell proliferation assay); assay type: cell-based
Description: (§1) The anticancer activity of the compounds was tested using an in vitro cancer cell tests. The specific test method is as follows: • 1. Cell recovery and culture method: the cryovial was taken out from the liquid nitrogen container firstly, soaked directly in 37°C warm water, and shaked from time to time to let it thaw as soon as possible. Then, the cryovial was transferred to a clean bench, and the lid was open. […] Then, the supernatant was discarded, complete culture medium containing 10% fetal bovine serum was added to resuspend the cells, the cells was counted, the cell density was adjusted, and then inoculated into a culture bottle. The culture bottle was placed in a cell culture incubator at 5% CO2 and 37°C. The complete culture medium was replaced once the next day and the culture was continued. • 2. Cell passaging method: adherent cells in the logarithmic growth phase were placed in a clean bench, the original culture medium was discarded, and washed three times with 1×PBS. An appropriate amount of 0.25% trypsin digestion solution was added to moisten the cells, and then the trypsin solution was aspirated. […] When 90% of the cells become round, the cells were moved immediately to the clean bench and complete culture medium was added to terminate digestion. Then, the cells were dislodged by pipetting up and down with a rubber-tipped dropper to single cells. The cells were counted, and the cell density was adjusted. The cells were inoculated into a suitable culture bottle or dish, added enough complete culture medium, and placed in a cell culture incubator at 5% CO2 and 37°C for static culture. For suspension cells in the logarithmic phase, the original culture medium was directly centrifuged at 50g for 5 minutes, the supernatant was discarded, and the cells were washed once with PBS and centrifuged. After discarding the supernatant, the complete culture medium was added and the cells were dispersed using a rubber-tipped dropper. The cells are counted, and the cell density was adjusted. The cells were inoculated into appropriate culture bottles or culture dishes, and sufficient complete culture medium was added, and the cells were cultured in a cell culture incubator at 5% CO2 and 37°C. • 3.

A. baumannii ATCC 17978 = assay: In vitro antibacterial activity assay (MIC, broth dilution); assay type: cell-based; conditions: Acinetobacter baumannii, ATCC17978; Table 2; 37°C, 16 hours; read-out: G- bacteria MIC A. baumannii ATCC 17978
From the text: (§2) The method used to indicate the activity of the compounds in this example is to record the minimum inhibitory concentration (MIC) of the compounds against bacteria. The specific experimental method is as follows: • 1. The bacterial liquid cultured from a single colony was taken, and diluted into autoclaved CAMHB broth in a ratio of 1:1000, and mixed well. • 2. The prepared drug solution was filtered through a sterile 0.22µm syringe filter and placed in a sterile EP tube for later use. • 3. A 96-well plate was taken, and 20µL of drug solution (400µg/mL) was added to each well in the first column of the 96-well plate. Then, 180µL of diluted bacterial liquid was added and mixed well (Perform 3 replicate rows for each drug). The same process was performed for the hydrochloride drug. • 4. 100 µL of diluted bacterial liquid was added to each well in the remaining 11 columns of the 96-well plate. Drugs are the same as above. • 5. Serial dilution: 100µL of liquid was taken from the first column to the second column, mixed well, then 100µL of liquid was taken from the second column to the third column, mixed well, and so on, sequentially diluting down to the last column (column 12). After mixing column 12 well, 100µL of liquid thereof was discarded. The drug concentration in each well was decreased by two-fold serially (the concentration in the first well is 40µg/mL). • 6. Blank CAMHB broth without added bacteria liquid was added to 3 blank wells in the 96-well plate, as negative control. • 7. The diluted bacterial liquid was added to 3 blank wells in the 96-well plate, as positive control. • 8. Incubated at 37°C for 16 hours. • 9. Results reading: the minimum inhibitory concentration is the minimum drug concentration at which no bacterial growth is visible to the naked eye and without turbidity.

P.aeruginosa ATCC 27853 = assay: as above; assay type: cell-based; conditions: Pseudomonas aeruginosa, ATCC27853; Table 2; 37°C, 16 hours; read-out: G- bacteria MIC P.aeruginosa ATCC 27853
From the text: as §2

E. coli ATCC 25922 = assay: as above; assay type: cell-based; conditions: Escherichia coli, ATCC25922
From the text: as §2

S. aureus ATCC 43300 = assay: as above; assay type: cell-based; conditions: Staphylococcus aureus, ATCC43300
From the text: as §2

[2] = system: methicillin-resistant Staphylococcus aureus; assay type: in vivo, Kunming mice; conditions: for reduction of necrosis area compared with the control group: 4 consecutive days, measured on 5th day
Description: Kunming mice (20±2 g) were anesthetized with chloral hydrate and shaved, and then 50 µL of 4×10^7 CFU/mL of methicillin-resistant Staphylococcus aureus was subcutaneously injected. One day later, 100 µL of 0.02, 2 and 200 mg/kg of Example 29 were subcutaneously injected respectively, and 100 µL of normal saline was injected for the control group. The drug was administered for consecutive 4 days, and mice were euthanized on the 5th day, and the area of abscess was measured.

[3] = system: human ovarian adenocarcinoma cellSK-OV-3; assay: In vitro anticancer activity test (MTT cell proliferation assay); assay type: cell-based; conditions: SK-OV-3
Description: as §1

[4] = system: human breast ductal carcinoma cell T-47D; assay: as above; assay type: cell-based; conditions: T47D
Description: as §1

[5] = Table 2, 37°C, 16 hours, read-out: G- bacteria MIC E. coli ATCC 25922
[6] = Table 1, 37°C, 16 hours, read-out: G+ bacteria MIC S. aureus ATCC 43300

SMILES	IC50 [1]	MIC (A. baumannii ATCC 17978)	MIC (P.aeruginosa ATCC 27853)	MIC (E. coli ATCC 25922; [5])	MIC (S. aureus ATCC 43300; [6])	reduction of necrosis area compared with the control group ([2]; 0.02 mg/kg subcutaneous)	reduction of necrosis area compared with the control group ([2]; 2 mg/kg subcutaneous)	antibacterial effect ([2]; concentrations 4 µg/mL and 400 µg/mL (corresponding to 0.02 mg/kg, 200 mg/kg))	observation at the subcutaneous administration site ([2]; mouse, in vivo, sc, 200 mg/kg)	IC50 [3]	IC50 [4]	MIC (E. coli ATCC 25922; Table 3, read-out: E. coli ATCC 25922 MIC)	MIC (S. aureus ATCC 43300; Table 3, read-out: S. aureus ATCC 43300 MIC)
O=C(O)c1cn(C2CC2)c2cc(N3CCNCC3)c(F)cc2c1=O [Ciprofloxacin]	> 100 µM	0.1 to 1 µg/mL (≈ 0.302 to 3.02 µM)	0.1 to 1 µg/mL (≈ 0.302 to 3.02 µM)	0.1 to 1 µg/mL (≈ 0.302 to 3.02 µM)	0.1 to 1 µg/mL (≈ 0.302 to 3.02 µM)								
O=C(O)c1cn(C2CC2)c2c(Cl)c(-c3ccc(S(=O)(=O)NCCCC(F)(F)F)nc3)c(F)cc2c1=O [Example 29, 8-chloro-1-cyclopropyl-6-fluoro-4-oxo-7-(6-(N-(4,4,4-trifluorobutyl)sulfamoyl)pyridin-3-yl)-1,4-dihydroquinolin-3-carboxylic acid]	1 to 10 µM	≤ 0.1 µg/mL	≤ 0.1 µg/mL	≤ 0.1 µg/mL	≤ 0.1 µg/mL	78.09%	81.21%	good antibacterial effect	certain bleeding symptom in body surface appeared	1 to 10 µM	1 to 10 µM	≤ 1 µg/mL	≤ 1 µg/mL
CCN(CC)CCNC(=O)c1c(C)[nH]c(/C=C2\C(=O)Nc3ccc(F)cc32)c1C [Sunitinib]										12.2 ± 5.8 µM	6.4 ± 1.7 µM		
